In general, EC50 refers to the concentration that produces a half-maximal response. Broadly, the AC50 is the midpoint of the concentration-response curve, whichever way the signal moves.

The values below come from ChEMBL document CHEMBL1201862, “PubChem BioAssay data set” (2004).

Each structure is given as a SMILES string. Activity calls are given as the source filed them. Where only a bound is given, the exact number is not on record here.

Data set [1] can be described thus: Luminescence Cell-Based Dose Response HTS to Identify Activators of Luciferase Translation or Activity in H4 […] Cells. [Related pubchem assays: 1829 (Project Summary), 1814 (Primary HTS)]. The data set is classed as functional.
In a further data set the test system is H4. As to the kind of experiment: Luminescence Cell-Based Dose Response HTS to Identify Activators of 5'UTR Stem-Loop Driven Prion Protein mRNA Translation in H4 Neuroglioblastoma Cells. [Related pubchem assays: 1829 (Project Summary), 1814 (Primary HTS)]. Type of data set: functional. The following applies: Homo sapiens.
Data set [2] concerns the target Potassium voltage-gated channel subfamily KQT member 2 (Rattus norvegicus, UniProt O88943). As to the kind of experiment: KCNQ2 channel activators, analog series, SAR follow-up, automated patch clamp, KCNQ2-CHO cells (AID 493113). The data set is classed as functional. On the technique in general: The patch-clamp technique gives a direct electrical read-out from membranes.

A further data set deals with Cytochrome P450 2D6 (Homo sapiens, UniProt P10635).
In data set [3] the target is T1, G-protein coupled receptor 35 (Homo sapiens, UniProt Q9HC97). As to the kind of experiment: SAR analysis of Agonists of the GPR35 Receptor using an Image-Based Assay - Set 2. [Related pubchem assays (depositor defined):AID2013, AID2026]. Type of data set: functional.
Data set [4] deals with T1, G-protein coupled receptor 35. In words: SAR analysis of Antagonists of the GPR35 Receptor using an Image-Based Assay - Set 3. [Related pubchem assays (depositor defined):AID2013, AID2026]. The data set is classed as functional.
The target of the next data set is T2, Streptokinase A (Streptococcus pyogenes serotype M1, UniProt P10520).
T2 sequence (P10520 whole entry): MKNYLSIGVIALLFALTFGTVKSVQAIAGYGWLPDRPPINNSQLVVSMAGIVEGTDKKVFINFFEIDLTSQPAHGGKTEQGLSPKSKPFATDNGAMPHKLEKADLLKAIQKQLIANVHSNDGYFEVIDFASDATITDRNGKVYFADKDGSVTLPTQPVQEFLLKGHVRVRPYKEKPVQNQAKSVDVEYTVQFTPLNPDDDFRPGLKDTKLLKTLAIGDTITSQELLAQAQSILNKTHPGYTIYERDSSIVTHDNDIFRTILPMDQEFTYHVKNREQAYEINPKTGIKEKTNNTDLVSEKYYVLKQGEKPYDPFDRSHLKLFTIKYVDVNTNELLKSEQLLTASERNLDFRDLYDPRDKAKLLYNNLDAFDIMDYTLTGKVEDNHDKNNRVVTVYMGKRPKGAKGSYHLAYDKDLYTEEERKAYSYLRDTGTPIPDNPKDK
In words: S. pyogenes streptokinase expression inhibitors, potency, dose response, plasminogen activation absorbance, OD405 (AID 1914).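 Also: secreted streptokinase activity via plasminogen activation per viability signal from cell pellet.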 The data set is classed as functional, Streptococcus pyogenes M1 GAS.

The target in data set [5] is T3, G-protein coupled receptor 55 (Homo sapiens, UniProt Q9Y2T6). In words: GPR55 antagonist potency of analogs, SAR follow-up, imaging, U2OS, beta-arrestin-GFP, LPI agonist, set 2 (AID 2820). Type of data set: functional.
The target of data set [6] is T4, Cannabinoid receptor 2 (Homo sapiens, UniProt P34972). As to the kind of experiment: SAR analysis of agonists of the Cannabinoid Receptor 2 using an Image-Based Assay. [Related pubchem assays (depositor defined):AID2013, AID2026]. The data set is classed as functional.
Data set [7] has as its target T3, G-protein coupled receptor 55. In words: GPR55 antagonists blocking LPI-driven arrestin recruitment, primary screen, imaging, U2OS, beta-arrestin-GFP, LPI agonist (AID 2013).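 Also: antagonist potency measured as reduced agonist-driven arrestin aggregation.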 Type of data set: functional. On the technique in general: Recruitment of arrestin is a read-out of receptor activation apart from second messengers.
In the next data set the target is Cytochrome P450 3A4 (Homo sapiens, UniProt P08684).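 Also: CYP3A4 tested as one member of a cytochrome P450 panel screen.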
For data set [8], the target named is T4, Cannabinoid receptor 2. In words: SAR analysis of antagonists of the Cannabinoid Receptor 2 using an Image-Based Assay. [Related pubchem assays (depositor defined):AID2013, AID2026]. Type of data set: functional.
Data set [9] deals with T5, Cannabinoid receptor 1 (Homo sapiens, UniProt P21554). As to the kind of experiment: SAR analysis of antagonists of the Cannabinoid Receptor 1 using an Image-Based Assay - Set 2. [Related pubchem assays (depositor defined):AID2013, AID2026]. Type of data set: functional.
Another data set has as its system Streptococcus. In words: Group A Streptococcus viability loss, dose response, counter-screen for streptokinase expression inhibitor project, luminescence, BacTiterGlo (AID 1915).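 Also: potency for reduction of bacterial viability or growth.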 Type of data set: functional, organism-based.
The test system of data set [10] is Streptococcus sp. 'group A'. In words: growth inhibition of control SK(-) GAS strain, dose response, counter-screen for streptokinase expression inhibitor project, luminescence, kanamycin, BacTiterGlo, confirmation (AID 1900). Type of data set: functional, organism-based. (A counterscreen serves to expose hits that act by an unwanted route or on another target.)

The target in data set [11] is Photoreceptor-specific nuclear receptor (Homo sapiens, UniProt Q9Y5X4). In words: NR2E3 inverse agonists, dose response, biochemical, TR-FRET (AID 463256). The data set is classed as functional.
The target of data set [12] is T5, Cannabinoid receptor 1. As to the kind of experiment: SAR analysis of agonists of the Cannabinoid Receptor 1 using an Image-Based Assay - Set 2. [Related pubchem assays (depositor defined):AID2013, AID2026]. Type of data set: functional.
The target in data set [13] is Peroxisome proliferator-activated receptor gamma/Nuclear receptor corepressor 2 (Homo sapiens, UniProt P37231+Q9Y618). As to the kind of experiment: Counterscreen for NR2E3 inverse agonists: TR-FRET-based biochemical high throughput dose response assay to identify inverse agonists of the interaction between peroxisome proliferator-activated receptor gamma (PPARg) and nuclear receptor co-repressor 2 (NCOR2). Type of data set: functional.

Data set [14] addresses T6, Sphingosine 1-phosphate receptor 4 (Homo sapiens, UniProt O95977).
T6 sequence (O95977 whole entry): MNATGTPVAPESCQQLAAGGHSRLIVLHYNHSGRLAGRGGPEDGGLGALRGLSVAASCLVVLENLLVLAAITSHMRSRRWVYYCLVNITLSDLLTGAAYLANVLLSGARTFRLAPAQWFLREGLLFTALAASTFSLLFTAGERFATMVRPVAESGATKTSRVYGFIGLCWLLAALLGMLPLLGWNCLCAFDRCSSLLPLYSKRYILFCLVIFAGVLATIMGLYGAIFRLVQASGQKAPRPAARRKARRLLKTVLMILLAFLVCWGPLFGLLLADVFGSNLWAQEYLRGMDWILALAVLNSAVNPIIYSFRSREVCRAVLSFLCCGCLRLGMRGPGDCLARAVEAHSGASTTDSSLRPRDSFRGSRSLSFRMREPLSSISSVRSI
As to the kind of experiment: Fluorescence dose response cell-based high throughput screening assay for agonists of the Sphingosine 1-Phosphate Receptor 4 (S1P4). [Related pubchem assays: 1509 (Primary screen.), 1523 (Confirmation screen in triplicates.)]. Type of data set: functional.

The nature of data set [15]: cytotoxicity in HEK-293T cells, dose response, cytotoxicity control for TCR NF-kB inhibitor project, luminescence, T-cell screen hits (AID 489026).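 Also: cells exposed to compound about 14 hours before the viability readout.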 Type of data set: functional, cell-based.
Data set [16] can be described thus: growth suppression of beta-catenin-knockout colon cells, dose response, cell-based, HCT116, human colon tumor (AID 1045).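 Also: HCT116 colon tumor cells with beta catenin knocked out; cells exposed to compound for 60 hours.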 Type of data set: functional.
Data set [17] deals with Sphingosine 1-phosphate receptor 1 (Homo sapiens, UniProt P21453). As to the kind of experiment: Fluorescence-based counterscreen assay for S1P4 agonists: Cell-based dose response high throughput screening assay to identify agonists of the Sphingosine 1-Phosphate Receptor 1 (S1P1). [Related pubchem assays (depositor defined):AID1509, AID1523, AID1801, AID463107, AID463118, AID463119, AID463122, AID463123, AID463129, AID463225, AID504400, AID504460]. The data set is classed as functional.

Data set [18] is described as follows: growth suppression of PTEN-null colon cells, dose response, cell-based, HCT116 PTEN knockout (AID 1047).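 Also: HCT116 colon tumor cells with PTEN knocked out; cells exposed to compound for 60 hours before readout; potency for loss of cell viability measured by luminescence.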 The data set is classed as functional.
A further data set addresses Protein Wnt-3a (Mus musculus, UniProt P27467). In words: Wnt3a-driven reporter signaling inhibition, dose response, selectivity assay for Gli-SUFU antagonist project, Wnt-LIGHT cells, luminescence (AID 651570).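 Also: Wnt-LIGHT reporter cells stimulated with conditioned medium from Wnt3a-producing cells.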 Conditions: read-out: IC50_Mean. The data set is classed as functional.

T4 sequence (P34972 whole entry): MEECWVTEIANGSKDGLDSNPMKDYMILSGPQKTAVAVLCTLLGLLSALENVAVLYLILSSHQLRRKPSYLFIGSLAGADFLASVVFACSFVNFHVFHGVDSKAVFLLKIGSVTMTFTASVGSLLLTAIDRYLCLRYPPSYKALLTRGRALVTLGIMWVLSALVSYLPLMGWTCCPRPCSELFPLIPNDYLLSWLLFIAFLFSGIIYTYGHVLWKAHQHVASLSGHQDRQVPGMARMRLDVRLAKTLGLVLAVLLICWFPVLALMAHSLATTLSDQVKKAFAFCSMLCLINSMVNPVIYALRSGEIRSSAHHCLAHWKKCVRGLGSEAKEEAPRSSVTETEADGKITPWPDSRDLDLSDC
T3 sequence (Q9Y2T6 whole entry): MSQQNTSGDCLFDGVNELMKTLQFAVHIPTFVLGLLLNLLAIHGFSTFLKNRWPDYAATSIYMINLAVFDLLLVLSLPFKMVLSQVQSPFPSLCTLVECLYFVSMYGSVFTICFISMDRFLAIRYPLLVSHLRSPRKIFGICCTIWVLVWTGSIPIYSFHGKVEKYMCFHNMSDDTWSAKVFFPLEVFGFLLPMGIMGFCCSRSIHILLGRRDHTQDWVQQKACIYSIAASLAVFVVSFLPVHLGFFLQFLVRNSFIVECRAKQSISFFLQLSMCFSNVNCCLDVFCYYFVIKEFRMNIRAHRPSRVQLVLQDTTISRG
T1 sequence (Q9HC97 whole entry): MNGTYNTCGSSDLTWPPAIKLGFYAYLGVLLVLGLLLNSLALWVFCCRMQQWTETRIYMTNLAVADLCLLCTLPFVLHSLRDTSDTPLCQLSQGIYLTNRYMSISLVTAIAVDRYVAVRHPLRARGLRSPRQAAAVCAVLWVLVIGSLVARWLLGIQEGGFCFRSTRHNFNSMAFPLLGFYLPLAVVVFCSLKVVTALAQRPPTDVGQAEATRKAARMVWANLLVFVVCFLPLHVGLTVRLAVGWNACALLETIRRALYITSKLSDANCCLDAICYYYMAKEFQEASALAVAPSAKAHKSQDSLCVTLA
T5 sequence (P21554 whole entry): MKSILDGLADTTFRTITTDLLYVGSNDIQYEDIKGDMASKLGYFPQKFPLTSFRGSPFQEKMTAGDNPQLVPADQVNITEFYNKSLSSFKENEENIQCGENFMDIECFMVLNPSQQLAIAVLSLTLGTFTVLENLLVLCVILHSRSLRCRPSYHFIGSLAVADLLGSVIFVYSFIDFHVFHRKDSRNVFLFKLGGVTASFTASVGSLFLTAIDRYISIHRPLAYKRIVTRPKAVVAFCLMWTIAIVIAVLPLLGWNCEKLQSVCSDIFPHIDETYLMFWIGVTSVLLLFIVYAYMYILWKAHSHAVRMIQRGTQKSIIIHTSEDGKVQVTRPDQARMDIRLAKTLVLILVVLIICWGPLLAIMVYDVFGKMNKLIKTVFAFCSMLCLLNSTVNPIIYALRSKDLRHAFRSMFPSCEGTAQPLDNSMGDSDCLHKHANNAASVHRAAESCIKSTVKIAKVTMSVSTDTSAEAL
Chain of Peroxisome proliferator-activated receptor gamma/Nuclear receptor corepressor 2 (P37231 whole entry): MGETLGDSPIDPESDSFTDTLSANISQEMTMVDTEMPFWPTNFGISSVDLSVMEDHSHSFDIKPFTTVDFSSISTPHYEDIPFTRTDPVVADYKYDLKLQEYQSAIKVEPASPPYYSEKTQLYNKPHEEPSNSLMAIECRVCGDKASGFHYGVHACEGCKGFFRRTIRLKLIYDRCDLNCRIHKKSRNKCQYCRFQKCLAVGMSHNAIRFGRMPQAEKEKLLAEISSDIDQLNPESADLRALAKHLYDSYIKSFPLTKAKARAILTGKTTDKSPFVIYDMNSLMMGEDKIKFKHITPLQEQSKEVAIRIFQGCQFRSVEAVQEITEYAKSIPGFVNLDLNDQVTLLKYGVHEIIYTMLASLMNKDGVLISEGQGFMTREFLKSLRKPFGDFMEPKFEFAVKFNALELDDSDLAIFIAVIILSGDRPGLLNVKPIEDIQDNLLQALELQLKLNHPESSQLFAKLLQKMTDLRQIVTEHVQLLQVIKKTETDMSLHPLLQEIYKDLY
Chain of Peroxisome proliferator-activated receptor gamma/Nuclear receptor corepressor 2 (Q9Y618 whole entry): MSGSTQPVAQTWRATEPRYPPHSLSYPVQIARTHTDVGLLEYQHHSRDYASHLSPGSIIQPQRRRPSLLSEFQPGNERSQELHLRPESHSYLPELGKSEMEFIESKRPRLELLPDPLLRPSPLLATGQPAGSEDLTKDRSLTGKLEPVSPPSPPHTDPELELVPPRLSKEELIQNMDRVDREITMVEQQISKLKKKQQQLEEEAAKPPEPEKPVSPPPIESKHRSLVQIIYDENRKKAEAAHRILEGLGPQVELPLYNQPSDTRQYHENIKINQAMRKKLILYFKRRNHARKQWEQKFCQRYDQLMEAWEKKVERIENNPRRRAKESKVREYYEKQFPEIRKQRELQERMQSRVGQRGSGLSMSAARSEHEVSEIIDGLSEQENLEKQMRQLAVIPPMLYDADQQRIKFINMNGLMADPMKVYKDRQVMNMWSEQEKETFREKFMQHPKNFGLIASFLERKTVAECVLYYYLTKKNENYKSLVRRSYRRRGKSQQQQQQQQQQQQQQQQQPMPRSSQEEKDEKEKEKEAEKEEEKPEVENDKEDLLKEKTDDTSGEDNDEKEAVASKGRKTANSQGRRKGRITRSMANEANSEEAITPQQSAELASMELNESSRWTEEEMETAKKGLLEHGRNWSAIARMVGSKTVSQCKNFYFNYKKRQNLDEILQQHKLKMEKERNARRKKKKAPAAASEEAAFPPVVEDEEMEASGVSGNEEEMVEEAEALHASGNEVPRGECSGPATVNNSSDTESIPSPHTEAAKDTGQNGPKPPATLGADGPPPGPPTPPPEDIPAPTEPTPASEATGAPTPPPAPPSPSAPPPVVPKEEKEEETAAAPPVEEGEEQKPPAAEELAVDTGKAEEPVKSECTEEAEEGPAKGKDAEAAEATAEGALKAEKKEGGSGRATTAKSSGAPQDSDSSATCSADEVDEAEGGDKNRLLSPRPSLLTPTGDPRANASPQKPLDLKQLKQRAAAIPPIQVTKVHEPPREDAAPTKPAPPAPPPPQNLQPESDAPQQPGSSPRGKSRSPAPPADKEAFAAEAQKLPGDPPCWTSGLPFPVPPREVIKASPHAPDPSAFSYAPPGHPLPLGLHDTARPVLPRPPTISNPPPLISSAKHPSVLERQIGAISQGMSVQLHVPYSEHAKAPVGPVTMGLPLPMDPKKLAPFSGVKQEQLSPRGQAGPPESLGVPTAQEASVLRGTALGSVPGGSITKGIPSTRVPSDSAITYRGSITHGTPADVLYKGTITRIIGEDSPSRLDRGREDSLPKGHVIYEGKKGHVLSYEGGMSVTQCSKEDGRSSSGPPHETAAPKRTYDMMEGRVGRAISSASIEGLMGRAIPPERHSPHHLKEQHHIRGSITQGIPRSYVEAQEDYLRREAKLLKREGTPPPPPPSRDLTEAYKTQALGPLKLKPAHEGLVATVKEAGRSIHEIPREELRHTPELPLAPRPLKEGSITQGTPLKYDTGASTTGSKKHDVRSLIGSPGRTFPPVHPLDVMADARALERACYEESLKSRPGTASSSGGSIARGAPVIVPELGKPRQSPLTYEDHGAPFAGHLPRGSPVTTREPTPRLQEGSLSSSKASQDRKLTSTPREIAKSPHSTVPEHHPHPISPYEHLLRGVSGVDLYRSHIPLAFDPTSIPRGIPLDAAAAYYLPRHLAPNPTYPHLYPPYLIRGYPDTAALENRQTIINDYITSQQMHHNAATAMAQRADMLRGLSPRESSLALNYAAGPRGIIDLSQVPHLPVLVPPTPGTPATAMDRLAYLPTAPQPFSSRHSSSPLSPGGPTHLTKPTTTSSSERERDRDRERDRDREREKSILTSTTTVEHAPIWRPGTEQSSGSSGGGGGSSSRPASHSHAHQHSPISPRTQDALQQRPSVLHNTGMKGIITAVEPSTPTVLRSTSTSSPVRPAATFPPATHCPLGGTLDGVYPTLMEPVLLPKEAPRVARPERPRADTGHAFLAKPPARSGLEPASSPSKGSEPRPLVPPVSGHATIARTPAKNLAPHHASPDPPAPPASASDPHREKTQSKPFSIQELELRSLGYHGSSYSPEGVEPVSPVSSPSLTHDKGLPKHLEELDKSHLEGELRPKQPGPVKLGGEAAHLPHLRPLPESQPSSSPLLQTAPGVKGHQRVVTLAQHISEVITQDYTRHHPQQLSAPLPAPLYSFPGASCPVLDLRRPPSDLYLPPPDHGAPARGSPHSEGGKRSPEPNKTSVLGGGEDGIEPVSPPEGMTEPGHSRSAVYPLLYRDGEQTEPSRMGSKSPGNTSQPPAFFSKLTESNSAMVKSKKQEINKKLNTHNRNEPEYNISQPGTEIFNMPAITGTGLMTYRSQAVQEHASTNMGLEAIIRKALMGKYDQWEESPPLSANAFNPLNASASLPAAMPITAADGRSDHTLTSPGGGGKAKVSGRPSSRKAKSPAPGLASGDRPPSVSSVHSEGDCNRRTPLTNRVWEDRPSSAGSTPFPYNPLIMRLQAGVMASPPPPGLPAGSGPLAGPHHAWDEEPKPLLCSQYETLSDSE
Chain of Photoreceptor-specific nuclear receptor (Q9Y5X4 whole entry): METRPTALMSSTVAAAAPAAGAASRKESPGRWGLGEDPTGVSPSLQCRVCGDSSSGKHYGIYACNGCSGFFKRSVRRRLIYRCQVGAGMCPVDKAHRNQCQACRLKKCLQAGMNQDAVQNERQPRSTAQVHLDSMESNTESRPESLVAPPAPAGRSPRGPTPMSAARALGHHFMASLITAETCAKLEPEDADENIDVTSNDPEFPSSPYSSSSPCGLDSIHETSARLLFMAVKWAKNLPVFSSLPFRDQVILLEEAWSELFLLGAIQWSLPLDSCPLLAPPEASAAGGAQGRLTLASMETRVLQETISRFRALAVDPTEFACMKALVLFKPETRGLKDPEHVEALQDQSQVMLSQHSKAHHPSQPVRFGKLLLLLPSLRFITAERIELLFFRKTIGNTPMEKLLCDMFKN

For `CC(C)c1ccc(NC(=O)C2CC3CCC2C3)cc1` (centres undefined), the figures for the half-maximal effective concentration (EC50) (in [1]; with H4; in data set [2]) were 0.432 µM (active), 65.4 µM (active) and 0.72 µM (active), respectively.

With `Cc1nnc(-c2cccc(Br)c2)c2cn(-c3ccc(Br)cc3)nc12`, the AC50 is 12.6 µM (inconclusive) at Cytochrome P450 2D6 and “inconclusive” at Cytochrome P450 3A4. Besides, the EC50 in data set [3] was > 32 µM (inactive); on Streptokinase A, 19.2 µM (active); at Cannabinoid receptor 2 [6], > 32 µM (inactive); with Streptococcus, 28.4 µM (active); in data set [10] it was 3.53 µM (active); on Cannabinoid receptor 1 [12], > 32 µM (inactive). The IC50 in [4] is > 32 µM (inactive); in data set [5], 0.893 µM (active); in data set [7] it was 0.915 µM (active); on Cannabinoid receptor 2 [8] it was > 32 µM (inactive); at Cannabinoid receptor 1 [9], 13.9 µM (inactive); in [11] it was 18.8 µM (not active). Besides, the IC50 in data set [13] is recorded as 14.5 µM (not active).

Take `COc1ccc(-c2c(C#N)c(N)nc3c2CCc2ccccc2-3)cc1OC`: the EC50 in data set [14] was 43.6 µM (not active); in data set [16], 5.59 µM (active); in data set [17], > 49.8 µM (inactive); in [18] it was 5.19 µM (active). Also, the IC50 in [15] was 38.1 µM (inactive); on Protein Wnt-3a, 17.9 µM (active).
